# Measured values as given in patent US11203577B2, “Sulfonyl-structure-containing triazinone derivatives, their preparation methods and their uses in insect killing and/or bacterium killing” (Nankai University, priority 2017, dated 2021).
# Tests used:
# Cucumber fusarium wilt = assay: In vitro fungicidal activity, PDA colony diameter; format: cell-based; conditions: 96 h, 50 mg/kg, inhibition of colony diameter, read-out: Fungicidal activity (%) Cucumber fusarium wilt
# [1] = tested on: Cercospora brown spot of peanut; assay: In vitro fungicidal activity, PDA colony diameter; format: cell-based; conditions: 96 h, 50 mg/kg, inhibition of colony diameter, read-out: Fungicidal activity (%) Cercospora brown spot of peanut
# Tomato early blight = assay: In vitro fungicidal activity, PDA colony diameter; format: cell-based, Alternaria solani; conditions: 50 mg/kg, inhibition of colony diameter; read-out: Fungicidal activity (%) Tomato early blight
# Wheat head blight = assay: whole plant or invertebrate; format: cell-based; conditions: Triticum aestivum, read-out: Fungicidal activity (%) Wheat head blight
# Rice bakanae disease = assay: In vitro fungicidal activity, PDA colony diameter; format: cell-based; conditions: 50 mg/kg, inhibition of colony diameter; read-out: Fungicidal activity (%) Rice bakanae disease
# Sclerotinia rot of colza = assay: In vitro fungicidal activity, PDA colony diameter; format: cell-based; conditions: 96 h, 50 mg/kg, inhibition of colony diameter, read-out: Fungicidal activity (%) Sclerotinia rot of colza
# Apple ring rot = assay: In vitro fungicidal activity, PDA colony diameter; format: cell-based; conditions: inhibition of colony diameter
# Procedure: (§1) Here, the test is described in an example of Alternaria solani; it can be replaced by other fungi.
# (§2) In vitro testing method: Alternaria solani is inoculated to a PDA culture medium and cultured for 7 days, a fungus dish with a diameter of […] is prepared on the periphery of the colony with a punch and inoculated to a PDA culture medium that contains pesticide at a concentration of 50 mg/kg and a PDA culture medium that doesn't contain the pesticide, and are cultured for 4 days respectively; then, the colony diameters are measured, and the inhibition percentages of the pesticides are calculated by comparing with the control sample.
# [2] = tested on: Capsicum phytophthora blight; assay: In vitro fungicidal activity, PDA colony diameter; format: cell-based; conditions: 96 h
# Procedure: as §1, §2
# Wheat sheath blight = assay: In vitro fungicidal activity, PDA colony diameter; format: cell-based; conditions: 50 mg/kg, inhibition of colony diameter; read-out: Fungicidal activity (%) Wheat sheath blight
# [3] = tested on: Corn southern leaf blight; assay: In vitro fungicidal activity, PDA colony diameter; format: cell-based; conditions: 50 mg/kg, inhibition of colony diameter; read-out: Fungicidal activity (%) Corn southern leaf blight
# Watermelon anthracnose = assay: In vitro fungicidal activity, PDA colony diameter; format: cell-based; conditions: 50 mg/kg, inhibition of colony diameter; read-out: Fungicidal activity (%) Watermelon anthracnose
# Potato late blight = assay: microbe, parasite or virus in culture; format: cell-based; conditions: Phytophthora infestans, 96 h, read-out: Fungicidal activity (%) Potato late blight
# Rice sheath blight = assay: In vitro fungicidal activity, PDA colony diameter; format: cell-based; conditions: 50 mg/kg, inhibition of colony diameter; read-out: Fungicidal activity (%) Rice sheath blight
# Armyworms = assay: Test of insecticidal activity against armyworms (leaf immersion); conditions: 600 mg/kg, 3-4 days
# Maize borers = assay: Test of insecticidal activity against maize borers (leaf immersion); conditions: read-out: Mortalities (%) Maize borers
# [4] = tested on: mosquito larvae (Culer pipiens pallens); assay: Test of insecticidal activity against mosquito larvae (checked after 24 h); conditions: 24 h, read-out: Mortalities (%) against mosquito larvae
# [5] = tested on: bean aphides (Aphis laburni Kaltenbach); assay: Test of insecticidal activity against aphides (leaf immersion, checked after 96 h); conditions: for mortality at 2.5 mg/kg / mortality at 5 mg/kg / mortality at 10 mg/kg / mortality at 100 mg/kg / mortality at 600 mg/kg: Aphis, 96 h, read-out: Mortalities (%) against aphides; for insecticidal activity against aphides compared with pymetrozine: 5 mg/kg
# Cotton bollworms = assay: Test of insecticidal activity against cotton bollworms (pesticide mixed into feedstuff); conditions: read-out: Mortalities (%) Cotton bollworms
# Procedure: Method of testing against cotton bollworms: the pesticide is mixed into the feedstuff, i.e., 3 mL prepared solution is added into about 27 g freshly prepared feedstuff; thus, required concentration is obtained by diluting by 10 times.
compound,measurement,setting,value
"COc1ccc(S(=O)(=O)NN2CC(C)=NNC2=O)cc1 [Ia-14, 4-methoxy-N-(6-methyl-3-oxo-2,3-dihydro-1,2,4-triazin-4(5H)-yl)-benzenesulfonamide]",inhibition of growth at 50 mg/kg,Cucumber fusarium wilt,8.8%
same,inhibition of growth at 50 mg/kg,[1],12%
same,inhibition at 50 mg/kg,Tomato early blight,13.4%
same,inhibition at 50 mg/kg,Wheat head blight,16.2%
same,inhibition at 50 mg/kg,Rice bakanae disease,10.3%
same,inhibition of growth at 50 mg/kg,Sclerotinia rot of colza,15.8%
same,inhibition at 50 mg/kg,Apple ring rot,33.8%
same,inhibition of growth at 50 mg/kg,[2],13.9%
same,inhibition at 50 mg/kg,Wheat sheath blight,21.7%
same,inhibition at 50 mg/kg,[3],9.3%
same,inhibition at 50 mg/kg,Watermelon anthracnose,26.2%
same,inhibition of growth at 50 mg/kg,Potato late blight,3.1%
same,inhibition at 50 mg/kg,Rice sheath blight,11.6%
same,Mortalities (%) Armyworms,Armyworms,0%
same,mortality at 600 mg/kg,Maize borers,0%
same,mortality at 2 mg/kg,[4],10%
same,mortality at 5 mg/kg,[4],95%
same,mortality at 10 mg/kg,[4],100%
same,mortality at 2.5 mg/kg,[5],35%
same,mortality at 5 mg/kg,[5],100%
same,mortality at 10 mg/kg,[5],100%
same,mortality at 100 mg/kg,[5],100%
same,mortality at 600 mg/kg,[5],100%
same,mortality at 600 mg/kg,Cotton bollworms,0%
"CC1=NNC(=O)N(NS(=O)(=O)c2ccc(C(C)(C)C)cc2)C1 [Ia-15, 4-tert-butyl-N-(6-methyl-3-oxo-2,3-dihydro-1,2,4-triazin-4(5H)-yl)-benzenesulfonamide]",inhibition of growth at 50 mg/kg,Cucumber fusarium wilt,8.8%
same,inhibition of growth at 50 mg/kg,[1],12%
same,inhibition at 50 mg/kg,Tomato early blight,20.9%
same,inhibition at 50 mg/kg,Wheat head blight,13.5%
same,inhibition at 50 mg/kg,Rice bakanae disease,24.1%
same,inhibition of growth at 50 mg/kg,Sclerotinia rot of colza,15.8%
same,inhibition at 50 mg/kg,Apple ring rot,16.2%
same,inhibition of growth at 50 mg/kg,[2],5.6%
same,inhibition at 50 mg/kg,Wheat sheath blight,9.3%
same,inhibition at 50 mg/kg,[3],9.3%
same,inhibition at 50 mg/kg,Watermelon anthracnose,14.7%
same,inhibition of growth at 50 mg/kg,Potato late blight,9.7%
same,inhibition at 50 mg/kg,Rice sheath blight,17.4%
same,Mortalities (%) Armyworms,Armyworms,60%
same,mortality at 600 mg/kg,Maize borers,45%
same,mortality at 2 mg/kg,[4],40%
same,mortality at 5 mg/kg,[4],100%
same,mortality at 10 mg/kg,[4],100%
same,mortality at 2.5 mg/kg,[5],10%
same,mortality at 5 mg/kg,[5],85%
same,mortality at 10 mg/kg,[5],100%
same,mortality at 100 mg/kg,[5],100%
same,mortality at 600 mg/kg,[5],100%
same,mortality at 600 mg/kg,Cotton bollworms,40%
"CC1=NNC(=O)N(NS(=O)(=O)c2ccccc2F)C1 [Ia-16, 2-fluoro-N-(6-methyl-3-oxo-2,3-dihydro-1,2,4-triazin-4(5H)-yl)-benzenesulfonamide]",inhibition of growth at 50 mg/kg,Cucumber fusarium wilt,2.9%
same,inhibition of growth at 50 mg/kg,[1],8%
same,inhibition at 50 mg/kg,Tomato early blight,13.4%
same,inhibition at 50 mg/kg,Wheat head blight,10.8%
same,inhibition at 50 mg/kg,Rice bakanae disease,27.6%
same,inhibition of growth at 50 mg/kg,Sclerotinia rot of colza,15.8%
same,inhibition at 50 mg/kg,Apple ring rot,17.6%
same,inhibition of growth at 50 mg/kg,[2],13.9%
same,inhibition at 50 mg/kg,Wheat sheath blight,14.3%
same,inhibition at 50 mg/kg,[3],0%
same,inhibition at 50 mg/kg,Watermelon anthracnose,8.2%
same,inhibition of growth at 50 mg/kg,Potato late blight,3.1%
same,inhibition at 50 mg/kg,Rice sheath blight,11.6%
same,Mortalities (%) Armyworms,Armyworms,10%
same,mortality at 600 mg/kg,Maize borers,15%
same,mortality at 2 mg/kg,[4],30%
same,mortality at 5 mg/kg,[4],100%
same,mortality at 10 mg/kg,[4],100%
same,insecticidal activity against aphides compared with pymetrozine,[5],equivalent to the insecticidal activity of pymetrozine
same,mortality at 5 mg/kg,[5],30%
same,mortality at 10 mg/kg,[5],90%
same,mortality at 100 mg/kg,[5],100%
same,mortality at 600 mg/kg,[5],100%
same,mortality at 600 mg/kg,Cotton bollworms,10%
"CC1=NNC(=O)N(NS(=O)(=O)c2cccc(F)c2)C1 [Ia-17, 3-fluoro-N-(6-methyl-3-oxo-2,3-dihydro-1,2,4-triazin-4(5H)-yl)-benzenesulfonamide]",inhibition of growth at 50 mg/kg,Cucumber fusarium wilt,5.9%
same,inhibition of growth at 50 mg/kg,[1],16%
same,inhibition at 50 mg/kg,Tomato early blight,13.4%
same,inhibition at 50 mg/kg,Wheat head blight,35.1%
same,inhibition at 50 mg/kg,Rice bakanae disease,13.8%
same,inhibition of growth at 50 mg/kg,Sclerotinia rot of colza,21%
same,inhibition at 50 mg/kg,Apple ring rot,10.8%
same,inhibition of growth at 50 mg/kg,[2],13.9%
same,inhibition at 50 mg/kg,Wheat sheath blight,14.3%
same,inhibition at 50 mg/kg,[3],0%
same,inhibition at 50 mg/kg,Watermelon anthracnose,8.2%
same,inhibition of growth at 50 mg/kg,Potato late blight,3.1%
same,inhibition at 50 mg/kg,Rice sheath blight,20.9%
same,Mortalities (%) Armyworms,Armyworms,5%
same,mortality at 600 mg/kg,Maize borers,10%
same,mortality at 2 mg/kg,[4],60%
same,mortality at 5 mg/kg,[4],100%
same,mortality at 10 mg/kg,[4],100%
same,insecticidal activity against aphides compared with pymetrozine,[5],equivalent to the insecticidal activity of pymetrozine
same,mortality at 5 mg/kg,[5],35%
same,mortality at 10 mg/kg,[5],85%
same,mortality at 100 mg/kg,[5],100%
same,mortality at 600 mg/kg,[5],100%
same,mortality at 600 mg/kg,Cotton bollworms,5%
